According to patent US8372831B2, “Isoxazoline linked pyrrolo[2,1-c][1,4]benzodiazepine hybrids as potential anticancer agents and the process for preparation thereof” (Council of Scientific & Industrial Research, priority 2008, dated 2013):

How the values were obtained:
[1] = test system: EKVX; test: NCI SRB cytotoxicity, EKVX (non-small cell lung); type: cell-based, human; details: Non-smallcell lung, 48 hrs exposure
Method: (§1) Biological Activity: The in vitro biological activity studies were carried out at the National Cancer Institute, Maryland, USA.
(§2) The C8-linked isoxazoline-PBD hybrids have been tested against sixty human tumour cell lines derived from nine cancer types (leukemia, non-small cell lung cancer, colon cancer, CNS cancer, melanoma, ovarian cancer, renal cancer, prostate cancer and breast cancer) as per NCI protocol. For each compound, dose response curves for individual cell lines have been measured at a minimum of five concentrations at 10 fold dilutions. A protocol of 48 hrs continuous drug exposure has been used, and a sulforhodamine B (SRB) protein assay was used to estimate cell viability or growth. The concentration for 50% cell growth inhibition (GI50), total cell growth inhibition (TGI, 0% growth) and 50% cell death (LC50, […]) compared with the control has been calculated (FIG. 2).
(§3) Compound 5b and 9b have been evaluated for in vitro cytotoxicity in sixty cell lines from nine human cancer types of lung (Hop-62, NCI-H226, NCI-H522), leukemia (K-562, SR), colon (HCT-116, HCT-15, HCC-2998), CNS(SF-539), melanoma (SK-MEL-5, UACC-62, M14), ovarian (IGROV1), renal (A498), prostate (PC3) breast (BT-549, MDA-MB-435, HS578T) origin. The results are expressed as percent of cell growth determined relative to that of untreated control cells (Table 1).

[2] = test system: NCI-H322M; test: NCI SRB cytotoxicity, NCI-H322M (non-small cell lung); type: cell-based, human; details: Non-smallcell lung, 48 hrs exposure
Method: as §1, §2, §3

[3] = test system: HOP-92; test: NCI SRB cytotoxicity, HOP-92 (non-small cell lung); type: cell-based, human; details: HOP-92, Non-smallcell lung; 48 hrs exposure
Method: as §1, §2, §3

[4] = test system: MALME-3M; test: NCI SRB cytotoxicity, MALME-3M (melanoma); type: cell-based, human; details: 48 hrs exposure
Method: as §1, §2, §3

[5] = test system: CNS; test: NCI SRB cytotoxicity, CNS cancer panel; type: cell-based, human; details: average of six to eight different cancer cell lines
Method: as §1, §2, §3

[6] = test system: RPMI-8226; test: NCI SRB cytotoxicity, RPMI-8226 (leukemia); type: cell-based, human; details: 48 hrs exposure
Method: as §1, §2, §3

[7] = test system: OVCAR-3; test: NCI SRB cytotoxicity, OVCAR-3 (ovarian); type: cell-based, human; details: 48 hrs exposure
Method: as §1, §2, §3

[8] = test system: Breast; test: NCI SRB cytotoxicity, breast cancer panel; type: cell-based, human; details: average of six to eight different cancer cell lines
Method: as §1, §2, §3

[9] = test system: UACC-257; test: NCI SRB cytotoxicity, UACC-257 (melanoma); type: cell-based, human; details: 48 hrs exposure
Method: as §1, §2, §3

[10] = test system: T-47D; test: NCI SRB cytotoxicity, T-47D (breast); type: cell-based, human; details: 48 hrs exposure
Method: as §1, §2, §3

[11] = test system: BT-549; test: NCI SRB cytotoxicity, BT-549 (breast); type: cell-based, human; details: BT-549, Breast; 48 hrs exposure
Method: as §1, §2, §3

[12] = test system: RXF 393; test: NCI SRB cytotoxicity, RXF 393 (renal); type: cell-based, human; details: 48 hrs exposure
Method: as §1, §2, §3

[13] = test system: HCT-116; test: NCI SRB cytotoxicity, HCT-116 (colon); type: cell-based, human; details: HCT-116, Colon; 48 hrs exposure
Method: as §1, §2, §3

[14] = test system: CAKI-1; test: NCI SRB cytotoxicity, CAKI-1 (renal); type: cell-based, human; details: 48 hrs exposure
Method: as §1, §2, §3

[15] = test system: HS 578T; test: NCI SRB cytotoxicity, HS 578T (breast); type: cell-based, human; details: HS 578T, Breast; 48 hrs exposure
Method: as §1, §2, §3

[16] = test system: MCF7; test: NCI SRB cytotoxicity, MCF7 (breast); type: cell-based, human; details: 48 hrs exposure
Method: as §1, §2, §3

[17] = test system: NCI-H226; test: NCI SRB cytotoxicity, NCI-H226 (non-small cell lung); type: cell-based, human; details: NCI-H226, Non-smallcell lung; 48 hrs exposure
Method: as §1, §2, §3

[18] = test system: MDA-MB-435; test: NCI SRB cytotoxicity, MDA-MB-435 (breast); type: cell-based, human; details: MDA-MB-435, Breast; 48 hrs exposure
Method: as §1, §2, §3

[19] = test system: HT29; test: NCI SRB cytotoxicity, HT29 (colon); type: cell-based, human; details: 48 hrs exposure
Method: as §1, §2, §3

[20] = test system: LOX IMVI; test: NCI SRB cytotoxicity, LOX IMVI (melanoma); type: cell-based, human; details: 48 hrs exposure
Method: as §1, §2, §3

[21] = test system: SK-MEL-28; test: NCI SRB cytotoxicity, SK-MEL-28 (melanoma); type: cell-based, human; details: 48 hrs exposure
Method: as §1, §2, §3

[22] = test system: ACHN; test: NCI SRB cytotoxicity, ACHN (renal); type: cell-based, human; details: 48 hrs exposure
Method: as §1, §2, §3

[23] = test system: sixty human tumour cell lines; test: NCI in vitro cytotoxicity, sixty human tumour cell lines (SRB); type: cell-based
Method: as §1, §2, §3

[24] = test system: Renal; test: NCI SRB cytotoxicity, renal cancer panel; type: cell-based, human; details: average of six to eight different cancer cell lines
Method: as §1, §2, §3

[25] = test system: SF-539; test: NCI SRB cytotoxicity, SF-539 (CNS); type: cell-based, human; details: SF-539, CNS; 48 hrs exposure
Method: as §1, §2, §3

[26] = test system: COLO 205; test: NCI SRB cytotoxicity, COLO 205 (colon); type: cell-based, human; details: 48 hrs exposure
Method: as §1, §2, §3

[27] = test system: SNB-75; test: NCI SRB cytotoxicity, SNB-75 (CNS); type: cell-based, human; details: 48 hrs exposure
Method: as §1, §2, §3

[28] = test system: M14; test: NCI SRB cytotoxicity, M14 (melanoma); type: cell-based, human; details: M14, Melanoma; 48 hrs exposure
Method: as §1, §2, §3

[29] = test system: SW-620; test: NCI SRB cytotoxicity, SW-620 (colon); type: cell-based, human; details: 48 hrs exposure
Method: as §1, §2, §3

[30] = test system: NCI-H460; test: NCI SRB cytotoxicity, NCI-H460 (non-small cell lung); type: cell-based, human; details: NCI-H460, Non-smallcell lung; 48 hrs exposure
Method: as §1, §2, §3

[31] = test system: HL-60(TB); test: NCI SRB cytotoxicity, HL-60(TB) (leukemia); type: cell-based, human; details: 48 hrs exposure
Method: as §1, §2, §3

[32] = test system: HCC-2998; test: NCI SRB cytotoxicity, HCC-2998 (colon); type: cell-based, human; details: HCC-2998, Colon; 48 hrs exposure
Method: as §1, §2, §3

[33] = test system: Prostate; test: NCI SRB cytotoxicity, prostate cancer panel; type: cell-based, human; details: average of six to eight different cancer cell lines
Method: as §1, §2, §3

[34] = test system: SR; test: NCI SRB cytotoxicity, SR (leukemia); type: cell-based, human; details: SR, Leukemia; 48 hrs exposure
Method: as §1, §2, §3

[35] = test system: MDA-MB-468; test: NCI SRB cytotoxicity, MDA-MB-468 (breast); type: cell-based, human; details: 48 hrs exposure
Method: as §1, §2, §3

[36] = test system: HOP-62; test: NCI SRB cytotoxicity, HOP-62 (non-small cell lung); type: cell-based, human; details: HOP-62, Non-smallcell lung; 48 hrs exposure
Method: as §1, §2, §3

Q: Which GI50 [1] does the source give for COc1ccc(C2CC(c3ccc(OC)c(OC)c3OC)=NO2)cc1OCCCCOc1cc2c(cc1OC)C(=O)N1CCC[C@H]1C=N2 (stereo partly drawn) [Compound 9b, (11aS)-7-(methyloxy)-8-(4-[(2-(methyloxy)-5-3-[2,3,4-tri(methyloxy)phenyl]-4,5-dihydro-5-isoxazolylphenyl)oxy]butyloxy)-2,3,5,11a-tetrahydro-1H-benzo[e]pyrrolo[1,2-a][1,4]diazepin-5-one] here?
A: The GI50 was 3.68 µM.

Q: And the GI50 [2]?
A: Its GI50 is 3.46 µM.

Q: What about the GI50 [3] of the same molecule?
A: Its GI50 is 2470 nM.

Q: And the GI50 [4]?
A: The GI50 was 2880 nM.

Q: And the “Log10 LC50” value ([5]; 50% lethality)?
A: The value was −5.05 mol/L.

Q: And the Log10GI50 [5]?
A: The Log10GI50 was −5.74 mol/L.

Q: What about the GI50 [6] of the same molecule?
A: Its GI50 is 1430 nM.

Q: And the GI50 [7]?
A: Its GI50 is 1940 nM.

Q: What about the “Log10 LC50” value ([8]; 50% lethality) of the same molecule?
A: The value was −4.34 mol/L.

Q: And the Log10GI50 [8]?
A: Its Log10GI50 is −5.74 mol/L.

Q: What about the GI50 [9] of the same molecule?
A: Its GI50 is 2330 nM.

Q: What about the GI50 [10] of the same molecule?
A: The GI50 was 1310 nM.

Q: What about the GI50 [11] of the same molecule?
A: The GI50 was 1230 nM.

Q: What about the GI50 [12] of the same molecule?
A: Its GI50 is 1390 nM.

Q: And the GI50 [13]?
A: Its GI50 is 1700 nM.

Q: And the GI50 [14]?
A: Its GI50 is 3.09 µM.

Q: And the GI50 [15]?
A: Its GI50 is 1100 nM.

Q: And the GI50 [16]?
A: The GI50 was 1750 nM.

Q: And the GI50 [17]?
A: Its GI50 is 1670 nM.

Q: And the GI50 [18]?
A: Its GI50 is 3.54 µM.

Q: And the GI50 [19]?
A: Its GI50 is 2750 nM.

Q: And the GI50 [20]?
A: Its GI50 is 1470 nM.

Q: And the GI50 [21]?
A: Its GI50 is 2070 nM.

Q: What about the GI50 [22] of the same molecule?
A: The GI50 was 2410 nM.

Q: And the “Log10 GI50 mean graph midpoint (MG_MID)” value ([23]; human tumour cell lines, mean graph midpoint)?
A: Its value is −5.73.

Q: What about the “Log10 TGI mean graph midpoint (MG_MID)” value ([23]; human tumour cell lines, mean graph midpoint, total cell growth inhibition) of the same molecule?
A: The value was −5.28.

Q: What about the GI50 ([23]; text b111, bound over all cell lines, read-out: GI50 against sixty cell lines in nine cancer cell panels) of the same molecule?
A: Its GI50 is less than 3.54 µM.

Q: What about the “Log10 LC50” value ([24]; 50% lethality) of the same molecule?
A: The value was −4.77 mol/L.

Q: And the Log10GI50 [24]?
A: Its Log10GI50 is −5.62 mol/L.

Q: What about the GI50 [25] of the same molecule?
A: Its GI50 is 1800 nM.

Q: And the GI50 [26]?
A: The GI50 was 1960 nM.

Q: And the GI50 [27]?
A: Its GI50 is 1710 nM.

Q: And the GI50 [28]?
A: The GI50 was 1730 nM.

Q: And the GI50 [29]?
A: Its GI50 is 1550 nM.

Q: What about the GI50 [30] of the same molecule?
A: The GI50 was 1850 nM.

Q: What about the GI50 [31] of the same molecule?
A: Its GI50 is 1900 nM.

Q: What about the GI50 [32] of the same molecule?
A: The GI50 was 1580 nM.

Q: And the “Log10 LC50” value ([33]; 50% lethality)?
A: The value was −4.54 mol/L.

Q: And the Log10GI50 [33]?
A: Its Log10GI50 is −5.92 mol/L.

Q: What about the GI50 [34] of the same molecule?
A: The GI50 was 1120 nM.

Q: What about the GI50 [35] of the same molecule?
A: Its GI50 is 1340 nM.

Q: What about the GI50 [36] of the same molecule?
A: The GI50 was 1680 nM.
